# According to patent US11497833B2, “Self-assembling peptides comprising non-Ionic polar amino acids” (3-D Matrix, Ltd., priority 2014, dated 2022):
# Peptide text beside a SMILES is read from it.
# Columns and labels:
# Format in all cases: physicochemical
# [1] = Congo Red assay of gel formation in PBS buffer (pH 7.4); conditions: 1% Congo Red in PBS buffer pH 7.4
# Method: A Congo Red assay was performed to determine gel formation of peptide solutions in a PBS buffer solution (pH 7.4). 100 μl of each gel at varying concentrations were plated on a glass slide. After 30 seconds, 500 μl of a 1% Congo Red solution in PBS buffer (pH 7.4) was added around and on top of each of the gel aliquots and then the excess Congo Red solution was wiped off prior to examination.
# Visualization of gel formation determined the success or failure of gelation at each concentration.
# [2] = Atomic Force Microscopy (AFM) morphological study of peptide nano structures; conditions: 100 μM peptide solution on mica, rinsed, air-dried, tapping mode
# Method: Each sample was left on the mica for about 30 seconds (s) and then rinsed with aliquots of 100 μl of Milli-Q (ultrapure) water to remove unattached peptides. The sample on the mica surface was then air-dried for AFM observation. AFM was performed with Asylum-1 MFP-3D AFM System (Asylum Research, Santa Barbara, Calif.) using a tapping mode. The images utilized an Olympus Si tip (AC240FS). The cantilever's free resonance frequency was 70 kHz.
# [3] = Dissolution in deionized water and visual appearance of peptide solution; conditions: deionized water
# [4] = Stability to autoclave sterilization, mass spectrometry before and after autoclave; conditions: 121° C. for 25 min, high pressure saturated steam; mass spec before and after; N- and C-terminus not protected
# Description: Sterilization is a very important step in the manufacturing process for all biomaterials, including the self-assembling peptide solutions.
# [5] = Rheological properties at various concentrations (rheometer, stress sweep); conditions: 37° C., 10 rad/s; for Loss Modulus (G')* / Storage Modulus (G')*: at 1 Pa of oscillation stress
# Method: The rheological properties of the ST14 (SEQ ID NO:2) were evaluated at various concentrations using a rheometer (AR500, TA Instruments) with 40 mm plates. Peptide solution (700μL) was placed on the rheometer plate and excess solution was gently removed by Kimwipes; measurements were performed after 2 minutes of relaxation time at 37° C. The storage modulus, loss modulus, and viscosity (η′) were measured at 37° C. with the plates placed at a measuring geometry gap of 300 μm, and stress sweep tests were performed at 0.1 Pa˜1000 Pa of oscillation stress with angular frequency at 10 rad/s.
SMILES,gel formation ([1]; below 1% peptide),AFM morphology (nano structure) [2],appearance in solution ([3]; 1 percent w/v to 5 percent w/v),solution consistency ([3]; 5 percent w/v),degradation during autoclave treatment [4],gel formation ([1]; 0.5% peptide),solution consistency ([3]; 1 percent w/v to 5 percent w/v),Max. Viscosity (max η') ([5]; Concentration 1) [Pa-s],Loss Modulus (G')* ([5]; Concentration 1) [Pa],Storage Modulus (G')* ([5]; Concentration 1) [Pa],Max. Viscosity (max η') ([5]; Concentration 1.5) [Pa-s],Loss Modulus (G')* ([5]; Concentration 1.5) [Pa],Storage Modulus (G')* ([5]; Concentration 1.5) [Pa],Max. Viscosity (max η') ([5]; Concentration 2) [Pa-s],Loss Modulus (G')* ([5]; Concentration 2) [Pa],Storage Modulus (G')* ([5]; Concentration 2) [Pa],Max. Viscosity (max η') ([5]; Concentration 2.5) [Pa-s],Loss Modulus (G')* ([5]; Concentration 2.5) [Pa],Storage Modulus (G')* ([5]; Concentration 2.5) [Pa]
"CC(O)C(N)C(=O)NC(C(=O)NC(C(=O)NC(C(=O)NC(C(=O)NC(C(=O)NC(C(=O)NC(C(=O)NC(C(=O)NC(C(=O)NC(C(=O)NC(C(=O)NC(C(=O)NC(C(=O)O)C(C)O)C(C)O)C(C)O)C(C)O)C(C)O)C(C)O)C(C)O)C(C)O)C(C)O)C(C)O)C(C)O)C(C)O)C(C)O (stereo not drawn) [Peptide T14, TTTTTTTTTTTTTT]",did not form a gel,Aggregates,translucent,formed a thick solution,did not degrade,,,,,,,,,,,,,,
"CC(O)C(NC(=O)C(CO)NC(=O)C(NC(=O)C(CO)NC(=O)C(NC(=O)C(CO)NC(=O)C(NC(=O)C(CO)NC(=O)C(NC(=O)C(CO)NC(=O)C(NC(=O)C(CO)NC(=O)C(NC(=O)C(N)CO)C(C)O)C(C)O)C(C)O)C(C)O)C(C)O)C(C)O)C(=O)O (stereo not drawn) [ST14, STSTSTSTSTSTST] (H-STSTSTSTSTSTST-OH; configuration not given here)",,,translucent,,did not degrade,did not form a gel,formed thick solutions,1.2,11.4,67,1.5,9.8,94,2.0,17.3,136,2.2,17.1,167
